Results published in patent US6395684B1, “Selective herbicides based on a substituted phenyl sulfonyl amino carbonyl triazolinone” (Bayer Aktiengesellschaft, priority 1998, dated 2002).
Where a name gives a salt, the structure may show the parent alone.

Assays:
Assay type in all cases: in vivo
winter wheat = assay: Post emergence tests/outdoors (Example C, Germany and France), crop compatibility; conditions: 42 g of a.i./ha to 45 g of a.i./ha, post-emergence (spring), outdoors, 1 to 8 weeks after the treatment, 439 tests
Procedure: Post Emergence Tests/outdoors Under outdoor conditions, the sodium salt of the compound of the formula (I) was tested in winter wheat in Germany and France against economically important weeds. The small-plot experiments were carried out on cultivated land under agricultural use, with cultivation and climate conditions which can be considered to be representative for the period of the trial. Areas with particularly extensive weed growth were chosen by way of preference. The active compound was applied by the post-emergence method (spring) across the area by the spray method, with an average droplet size. To produce a useful preparation of active compound, the active compound was formulated as 70 WP or 70 WG (70% w/w water-dispersible powder or granules) and applied with customary amounts of water. To assess the crop compatibility, from 1 to 8 weeks after the treatment, plant growth inhibitions or […] of the leaf area were assessed in % damage in comparison to the development of the untreated control. At different intervals after the treatment, the herbicidal activity was assessed as % reduction in comparison to the untreated control, based on the weed development. The figures denote: 0%=no damage of the crops or no herbicidal effect, 100%=total destruction of the crops or the weeds.

Setaria = assay: Pre-emergence test/greenhouse; conditions: 30 g ai./ha, greenhouse, after three weeks
Procedure: (§1) Pre-emergence Test/greenhouse Solvent: 5 parts by weight of acetone Emulsifier: 1 part by weight of alkylaryl polyglycol ether To produce a suitable preparation of active compound, 1 part by weight of active compound is mixed with the stated amount of solvent, the stated amount of emulsifier is added and the concentrate is diluted with water to the desired concentration. Seeds of the test plants are sown in normal soil. After about 24 hours, the soil is sprayed with the preparation of active compound such that the particular amount of active compound desired is applied per unit area. The concentration of the spray liquor is chosen so that the particular amount of active compound desired is applied in 500 litres of water per hectare. After three weeks, the degree of damage to the plants is tested in % damage in comparison to the development of the untreated control. The figures denote: 0% no effect (like untreated control) 100%=total destruction

Bromus = assay: Pre-emergence test/greenhouse; conditions: greenhouse, after three weeks
Procedure: as §1

Avena = assay: Pre-emergence test/greenhouse; conditions: greenhouse, after three weeks
Procedure: as §1

Lolium = assay: Pre-emergence test/greenhouse; conditions: 30 g ai./ha, greenhouse, after three weeks
Procedure: as §1

Agropyron = assay: Pre-emergence test/greenhouse; conditions: 15 g ai./ha, greenhouse, after three weeks
Procedure: as §1

Wheat = assay: Pre-emergence test/greenhouse; conditions: greenhouse; for degree of damage to the plants (% damage in comparison to the untreated control): Wheat, after three weeks
Procedure: as §1

Alopecurus = assay: Pre-emergence test/greenhouse; conditions: greenhouse, after three weeks
Procedure: as §1

Poa = assay: Pre-emergence test/greenhouse; conditions: 15 g ai./ha, greenhouse, after three weeks
Procedure: as §1

Sinapis = assay: Pre-emergence test/greenhouse; conditions: 15 g ai./ha, greenhouse, after three weeks
Procedure: as §1

Amaranthus = assay: Pre-emergence test/greenhouse; conditions: 15 g ai./ha, greenhouse, after three weeks
Procedure: as §1

Bromus tectorum = assay: Post-emergence tests/outdoors (Example D, USA); conditions: 42 g a.i./ha to 45 g a.i./ha, post-emergence (autumn), outdoors, winter wheat, with surface-active substances (SAS), 37 tests
Procedure: The active compound was applied by the post-emergence method (spring) across the area by the spray method, with an average droplet size. To produce a useful preparation of active compound, the active compound was formulated as 70 WP or 70 WG (70% w/w water-dispersible powder or granules) and applied with customary amounts of water. To assess the crop compatibility, from 1 to 8 weeks after the treatment, plant growth inhibitions or […] of the leaf area were assessed in % damage in comparison to the development of the untreated control. At different intervals after the treatment, the herbicidal activity was assessed as % reduction in comparison to the untreated control, based on the weed development. The figures denote: 0%=no damage of the crops or no herbicidal effect, 100%=total destruction of the crops or the weeds. Post-emergence Tests/outdoors The sodium salt of the compound of the formula (I) was tested under outdoor conditions in the main cultivation areas of winter wheat in the USA (Pacific Northwest, North Central Area, Central Plains) against economically important weeds. The design, the practice and the evaluation of the experiments corresponded to Example C. The active compound was applied in autumn. Wetting of the plants was improved by addition of commercial surface-active substances (SAS) in the concentrations recommended by the respective manufacturer.

For `CCCOc1nn(C(=O)NS(=O)(=O)c2ccccc2C(=O)OC)c(=O)n1C` [(I)-Na-salt, 2-(2-methoxycarbonyl-phenylsulphonylaminocarbonyl)-4-methyl-5-propoxy-2,4-dihydro-3H-1,2,4-triazol-3-one], the “Damage to the crop (wheat)” value (winter wheat) was 2%, the “degree of damage to the plants (% damage in comparison to the untreated control)” value (Setaria) was 90% and the “degree of damage to the plants (% damage in comparison to the untreated control)” value (Bromus; 15 g ai./ha) was 90%. For the same molecule, the “degree of damage to the plants (% damage in comparison to the untreated control)” value (Bromus; 30 g ai./ha) was 90%, the “degree of damage to the plants (% damage in comparison to the untreated control)” value (Avena; 15 g ai./ha) was 80% and the “degree of damage to the plants (% damage in comparison to the untreated control)” value (Avena; 30 g ai./ha) was 90%. The “degree of damage to the plants (% damage in comparison to the untreated control)” value (Lolium) was 80%, the “degree of damage to the plants (% damage in comparison to the untreated control)” value (Agropyron) was 90% and the “degree of damage to the plants (% damage in comparison to the untreated control)” value (Wheat; 15 g ai./ha) was 0%. The “degree of damage to the plants (% damage in comparison to the untreated control)” value (Wheat; 30 g ai./ha) was 0%, the “compatibility with crop plants (wheat), in words” value (Wheat; sodium salt of (I) at 15 g/ha to 60 g/ha) was “very good compatibility” and the “degree of damage to the plants (% damage in comparison to the untreated control)” value (Alopecurus; 15 g ai./ha) was 95%. For the same molecule, the “degree of damage to the plants (% damage in comparison to the untreated control)” value (Alopecurus; 30 g ai./ha) was 95%, the “degree of damage to the plants (% damage in comparison to the untreated control)” value (Poa) was 90% and the “degree of damage to the plants (% damage in comparison to the untreated control)” value (Sinapis) was 90%. For the same molecule, the “degree of damage to the plants (% damage in comparison to the untreated control)” value (Amaranthus) was 95% and the “herbicidal effect (%)” value (Bromus tectorum) was 90%.
